Assay [1] has as its system UM-UC-5 urothelial bladder cancer cell lines. The assay is described as follows: tissue or blood. As to conditions: 48 h. It is filed as cell-based. On the procedure:
(§1) A549 adenocarcinomic human alveolar basal epithelial cells, UM-UC-5 urothelial bladder cancer cell lines, and MRC-5 human normal lung fibroblast cells (all from ATCC, American Type Culture Collection, Manassas, VA, USA) were cultured in Dulbecco’s Modified Eagle Medium (DMEM) medium (Gibco®, Grand Island, NY, USA), supplemented with 10% fetal bovine serum (FBS, Gibco®, Grand Island, NY, USA) and 1% (v/v) penicillin/streptomycin (Sigma-Aldrich®, Steinheim, Germany), maintained at 37 °C and 95% humidified air in a 5% CO2 environment. Cells were cultured in monolayers in T25 cm^2 flasks (ThermoScientific®, Waltham, MA, USA) and cell media were replaced every 2–3 days. At 80% confluency, cells were subcultured. For the subculture process, 0.25% trypsin-ethylenediaminetetraacetic acid (EDTA, Sigma-Aldrich®, Steinheim, Germany), was added.
(§2) The potential of the antineoplastic drug 5-FU, five cationic antimicrobial peptides (CAMPs), and two cell-penetrating peptides (CPPs) was analyzed in UM-UC-5 and A549 cell lines. Cells were treated with drugs in concentrations ranging from 0.1 to 100 μM (for 5-FU) and 0.1 to 50 μM (for CAMPs and CPPs) for 48 h, and cell survival was evaluated using the MTT assay. […] IC50 values > 100 μM were not considered.
(§3) The cell viability was measured using the MTT (Thiazolyl blue tetrazolium bromide; cat. no. M5655; Sigma-Aldrich; Merck KGaA, Darmstadt, Germany) assay in 96-well plates. For the protocol, 5 × 10^3 cells in 200 µL of medium were grown per well for 24 h at 37 °C. Then, cells were treated with CAMPs and CPPs in the following concentrations: 0.1, 1.0, 5.0, 10, 25, and 50 µM. […] The controls were treated with 0.1% H2O and 0.1% DMSO (vehicles). After incubation for 48 h at 37 °C, cell media were aspirated and 100 µL of MTT solution (0.5 mg/mL in PBS) was added to each well. After incubation for 3 h at 37 °C protected from light, MTT solution was removed from each well and 100 µL of DMSO was added to each well to solubilize the formazan crystals. Absorbance was measured on a Tecan Infinite M200 plate reader (Tecan Group Ltd., Männedorf, Switzerland) at 570 nm. The cell viability was calculated relative to the absorbance of carrier controls. Average values were obtained by performing three independent cell viability assays (n = 3).

Assay [2] has as its system A549 adenocarcinomic human alveolar basal epithelial cells. It is filed as cell-based. As to conditions: 48 h. On the procedure:
as §1, §2, §3

The mark [3] stands for this setting: UM-UC-5 cells, MTT, n = 3, read-out: IC50.
[4] abbreviates: A549 cells, MTT, n = 3, read-out: IC50.

From paper PMC10744333, “New Perspective for Using Antimicrobial and Cell-Penetrating Peptides to Increase Efficacy of Antineoplastic 5-FU in Cancer Cells” (Journal of Functional Biomaterials, 2023) come the findings set out here.

Like-named read-outs stand apart in the source and are kept apart here. Where a SMILES comes first, the peptide text is derived from it.

Regarding `CC[C@H](C)[C@H](NC(=O)[C@@H](NC(=O)[C@@H](NC(=O)[C@H](CCCNC(=N)N)NC(=O)[C@H](CCCNC(=N)N)NC(=O)[C@H](CCC(N)=O)NC(=O)[C@H](CCCNC(=N)N)NC(=O)/C=C/c1ccccc1)C(C)C)C(C)C)C(=O)N[C@@H](Cc1c[nH]c2ccccc12)C(=O)N[C@@H](Cc1c[nH]c2ccccc12)C(N)=O` [CPP2] (HELM PEPTIDE1{[O=C(/C=C/c1ccccc1)[*:2]].R.Q.R.R.V.V.I.W.W.[am]}$$$$V2.0), the IC50 (commonly the concentration needed to halve the response being measured) in assay [1] (setting [3]) was 5.47 µM; in assay [2] (setting [4]) it was over 100 µM. With `O=c1[nH]cc(F)c(=O)[nH]1` [Peptide 5-FU, 5-fluorouracil, reference compound], the half-inhibitory concentration (IC50) in assay [1] (setting [3]) stood at 4.21 µM. For Ac-CLLIILRRRIRKQAHAHSK-NH2 [CPP4], the IC50 in assay [1] and in assay [2] was over 100 µM in each case. Regarding H-RIRRWKFRW-NH2 [CAMP5], the half-inhibitory concentration (IC50) is over 100 µM in assay [1] (setting [3]) and 19.7 µM in assay [2] (setting [4]). Take H-RLWWWWRRR-NH2 [CAMP3]: the IC50 in assay [1] is over 100 µM; in assay [2], 17.6 µM. For the molecule H-RQRRVVIWW-NH2 [CAMP7], the IC50 in assay [1] (setting [3]) and in assay [2] (setting [4]) was over 100 µM throughout. As for H-WKWLKKWIK-NH2 [CAMP1], the half-maximal inhibitory concentration (IC50) is over 100 µM in assay [1] (setting [3]) and 12.4 µM in assay [2] (setting [4]). In the case of H-WRKFWKYLK-NH2 [CAMP2], the IC50 in assay [1] (setting [3]) was 21.6 µM; in assay [2] (setting [4]) it was 5.77 µM.
